From patent publication US7056924B2, “Substituted heterocyclic compounds” (CV Therapeutics, Inc., priority 2002, dated 2006)

Tested on: Palmitoyl CoA oxidation in rat heart mitochondria
Assay: Mitochondrial assay: Palmitoyl CoA oxidation
Type: biochemical
Details: 16 microM 1-C14 palmitoyl CoA, 15 min at 30° C., read-out: Effect of Compounds of the Invention on Palmitoyl CoA Oxidation (IC50)
Method: Rat heart mitochondria were isolated by the method of Nedergard and Cannon (Methods in Enzymol. 55, 3, 1979).
Palmitoyl CoA oxidation—The Palmitoyl CoA oxidation was carried out in a total volume of 100 micro liters containing the following agents: 110 mM KCl, 33 mM Tris buffer at pH 8, 2 mM KPi, 2 mM MgCl2, 0.1 mM EDTA, 14.7 microM defatted BSA, 0.5 mM malic acid, 13 mM carnitine, 1 mM ADP, 52 micrograms of mitochondrial protein, and 16 microM 1-C14 palmitoyl CoA (Sp. Activity 60 mCi/mmole; 20 microCi/ml, using 5 microliters per assay). The compounds of this invention were added in a DMSO solution at the following concentrations: 100 micro molar, 30 micro molar, and 3 micro molar. In each assay, a DMSO control was used. After 15 min at 30° C., the enzymatic reaction was centrifuged (20,000 g for 1 min), and 70 microliters of the supernatant was added to an activated reverse phase silicic acid column (approximately 0.5 ml of silicic acid). The column was eluted with 2 ml of water, and 0.5 ml of the eluent was used for scintillation counting to determine the amount of C^14 trapped as C^14 bicarbonate ion.

Substance | IC50 [µM]
(2R)-3-[(2S)-2-methyl-4-({5-[4-(trifluoromethyl)phenyl](1,2,4-oxadiazol-3-yl)}methyl)piperazinyl]-1-(2-methylbenzothiazol-5-yloxy)propan-2-ol | 0.25
(2R)-3-{(2S)-2-methyl-4-[(3-(2-thienyl)(1,2,4-oxadiazol-5-yl))methyl]piperazinyl}-1-(2-methylbenzothiazol-5-yloxy)propan-2-ol | 0.49
(2R)-3-{(3S)-3-methyl-4-[(3-(4-methoxyphenyl)isoxazol-5-yl)methyl]piperazinyl}-1-(2-methylbenzothiazol-5-yloxy)propan-2-ol | 0.74
(2R)-3-{(3S)-3-methyl-4-[(5-(2-chlorophenyl)isoxazol-3-yl)methyl]piperazinyl}-1-(2-methylbenzothiazol-5-yloxy)propan-2-ol | 0.06
(2R)-3-{(3S)-3-methyl-4-[(5-(3,4-dichlorophenyl)isoxazol-3-yl)methyl]piperazinyl}-1-(2-methylbenzothiazol-5-yloxy)propan-2-ol | 0.25
(2R)-3-{(3S)-3-methyl-4-[(5-(4-chlorophenyl)isoxazol-3-yl)methyl]piperazinyl}-1-(2-methylbenzothiazol-5-yloxy)propan-2-ol | 0.33

The remaining lines, values ahead:

IC50 [µM] | Substance
0.41 | (2R)-3-{(2S)-2-methyl-4-[(3-phenylisoxazol-5-yl)methyl]piperazinyl}-1-(2-methylbenzothiazol-5-yloxy)propan-2-ol
2.1 | (2R)-3-{(2S)-2-methyl-4-[(5-phenylbenzoxazol-2-yl)methyl]piperazinyl}-1-(2-methylbenzothiazol-5-yloxy)propan-2-ol
